What was measured:
[1] = Assay 1. Stability in Simulated Gastric Fluid (SGF); assay type: in vitro ADME; conditions: 1 μM, 37° C., SGF pH 1.6 with pepsin
In short: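 Acylated compounds at a final 1 μM (diluted from 1 mM DMSO stock) were incubated at 37 °C in SGF of pH 1.6 NaCl buffer with FaSSIF powder and 0.1 mg/mL pepsin. Aliquots were quenched with acetonitrile at T0 and regular intervals, and degradation rates were determined by LC/MS.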

[2] = Assay 2. Stability in Simulated Intestinal Fluid (SIF); assay type: in vitro ADME; conditions: 1 μM, 37° C., SIF pH 6.7 with pancreatin
In short: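 Acylated compounds at 1 μM (from 1 mM DMSO stock) in fresh SIF: FaSSIF with pancreatin in pH 6.7 phosphate buffer, agitated at 37 °C. Aliquots from T0 onward quenched with 1 volume acetonitrile; LC/MS gives degradation rates.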

[3] = test system: C57BL/6 DIO mice; assay: DIO animal model of NAFLD/NASH in young mice (Example 16); assay type: in vivo; set-up: OGTT: unit not given beside the values; conditions: ad libitum in HFD; for % Weight change: 12 weeks; for OGTT: Day 82, 2 g/kg glucose PO; for OGTT / % HbA1c: ctrl HFD; for % Difference compared to ctrl: weight change vs HFD ctrl
Description: Species (number, sex, age/weight): C57BL/6 DIO mice (120+10 spares, male, ˜18 weeks of age) from Jackson Laboratories, Stock #380050. Note: 18 week old DIO mice sent sent with a minimum body weight of 39 grams. Spare animals may be used to replace study animals, as required, euthanized after completion of dose administration or transferred to Testing Facility Docket 07-12.
Cage Side Observations (Animal Health Checks): Cage side animal's health checks will be performed at least once daily to check for general health, mortality and moribundity. Clinical Observations: Clinical observations will be performed per exception. Body Weights: Body weights for all animals will be recorded prior to Day 1 and at least twice weekly thereafter, including prior to necropsy ([…]).
Dose Administration: Dosing for Groups 3-8 will be provided ad libitum in the diet. Dosing for Groups 9 (Saline) and 10 (Semaglutide at 123.4 μg/kg) in a 5 mL/kg volume, will begin on Day 1, and be performed 3 times weekly for 12 weeks by SC administration. Residual Test Article: All residual high fat diets will be frozen at nominally −20° C., and at the end of the study, several pellets of the diets for groups 2-9 (in 50-ml conical tubes) will be shipped to Sponsor, and the rest will be discarded. Residual control diets (group 1) will be stored ambient, and at the end of the study, several pellets in a 50 mL conical tube will be shipped to Sponsor and the rest is discarded. Residual test material for Group 10 will be stored at nominally −70° C., and at the end of the study, an aliquot of test material will be shipped to Sponsor, and the rest will be discarded.
Oral Glucose Tolerance Test (oGTT) On Day 82 (+/−2 days) an oGTT will be performed. Following an approximate 4 hour fast, 2 g/kg glucose (50% Dextrose diluted in sterile water for injection to a concentration of 0.4 g/mL) will be administered at 5 mL/kg via oral gavage (PO). Blood will be collected pre-glucose challenge (t=0) and at t=15, 30, 60, 90, and 120 minutes following the glucose challenge. Whole blood glucose levels will be evaluated at all time points using a handheld glucometer and will be reported in the Data Submission. This will be scheduled on a Tuesday or Thursday to avoid Group 9/10 dosing days.
Oral Glucose Tolerance Test (oGTT) On Day 82 (+/−2 days) an oGTT will be performed. Following an approximate 4 hour fast, 2 g/kg glucose (50% Dextrose diluted in sterile water for injection to a concentration of 0.4 g/mL) will be administered at 5 mL/kg via oral gavage (PO). Blood will be collected pre-glucose challenge (t=0) and at t=15, 30, 60, 90, and 120 minutes following the glucose challenge. Whole blood glucose levels will be evaluated at all time points using a handheld glucometer and will be reported in the Data Submission.

CC(=O)Oc1cc(OC(C)=O)c2c(c1)O[C@H](c1cc(OC(C)=O)c(OC(C)=O)c(OC(C)=O)c1)[C@H](OC(=O)c1cc(OC(C)=O)c(OC(C)=O)c(OC(C)=O)c1)C2 [Compound 4, [(2R,3R)-5,7-diacetoxy-2-(3,4,5-triacetoxyphenyl)chroman-3-yl] 3,4,5-triacetoxybenzoate]
Assay 1 (SGF) (% Remaining @ 1 hours) [1]: C (C: >75% of the tested compound remaining) | Assay 2 (SIF) (% @ Remaining 4 hours) [2]: A (A: <25% of the tested compound remaining) | % Weight change [3]: 19% | OGTT [3]: 25072 | % HbA1c [3]: 4.89% | % Difference compared to ctrl [3]: −4%

CC(=O)O[C@H]1OC[C@H](OC(C)=O)[C@H](OC(C)=O)[C@H]1OC(C)=O [Compound 53, (2R,3R,4S,5S)-tetrahydro-2H-pyran-2,3,4,5-tetrayl Tetraacetate]
Assay 1 (SGF) (% Remaining @ 1 hours) [1]: C (C: >75% of the tested compound remaining) | Assay 2 (SIF) (% @ Remaining 4 hours) [2]: A (A: <25% of the tested compound remaining) | % Weight change [3]: 10% | OGTT [3]: 25779 | % HbA1c [3]: 4.35% | % Difference compared to ctrl [3]: −13%

CC(=O)Oc1cc(OC(C)=O)c2c(=O)c(OC(C)=O)c(-c3ccc(OC(C)=O)c(OC(C)=O)c3)oc2c1 [Compound 14, [2-acetoxy-4-(3,5,7-triacetoxy-4-oxo-chromen-2-yl)phenyl] acetate]
Assay 1 (SGF) (% Remaining @ 1 hours) [1]: C (C: >75% of the tested compound remaining) | Assay 2 (SIF) (% @ Remaining 4 hours) [2]: A (A: <25% of the tested compound remaining) | % Weight change [3]: 16% | OGTT [3]: 32591 | % HbA1c [3]: 6.93% | % Difference compared to ctrl [3]: −7%
